Results published in patent US12583861B2, “Derivatives of imidazo[4,5-d]pyridazine, their preparation and their therapeutic application” (SANOFI, priority 2021, dated 2026).
Where two headings read alike, the source gives them in different places.

Tests used:
Type in all cases: cell-based
IFN-α2a = IFN-α2a cytokine activation in human PBMC (MSD assay)
Method: (§1) The other below tests involving measuring the in vitro activity of some compounds of the disclosure on cytokines IFN-α2a, IL-6, IL29 and TNF-α were carried out using human PBMC (PBMCs).
(§2) The activity described below, with respect to TLR7, TLR8, IFN-α2a, IL-6, IL29 and TNF-α, is given by the half maximal effective concentration (EC50), which corresponds to the concentration required to obtain a 50% of the activation. The lower the EC50, the less the concentration of the compound is required to produce 50% of maximum activation and the higher the potency.
(§3) In Vitro Assay to Determine IFN-α2a, IL-6, IL29 and TNF-α Cytokine Activation:
(§4) Peripheral blood mononuclear cells were isolated by Ficoll density gradient centrifugation from peripheral blood samples obtained from healthy donors (EFS). Isolated PBMCs are washed twice with PBS and resuspended in RPMI-1640 medium supplement with 10% fetal bovine serum (FBS) at 5.10^5 cells/well in a 96-well plate. The cells were then incubated with the compounds to test at various doses (20 μM to 4.8.10-6 μM final) for 24 h at 37° C., 5% CO2. After 24 h treatment, the plates are centrifuged and the supernatant were collected and assayed for cytokines IFN-α2a, IL-6, IL29 and TNF-α using the Meso Scale Discovery (MSD) assay platform according to the manufacturer's instructions. Briefly, 25 μL of cell culture supernatants were incubated for 1 h at Room Temperature (RT) in custom Multi-Spot 96-well plates prior coated with capture antibodies. After washing, SULFO-TAG® labeled detection antibodies were added to each of the wells and incubated for 1 h RT before adding a read buffer.

human TLR7 = biological target: T1, human TLR7 (Homo sapiens, UniProt Q9NYK1); experiment: HEK-Blue hTLR7 reporter cell assay (SEAP, NF-kB/AP-1) for stimulation of human TLR7; conditions: HEK-Blue hTLR7 cells, 24 h incubation, SEAP readout; read-out: TLR7_EC50
T1 construct: host or cells: HEK293 (HEK-Blue hTLR7)
T1 sequence (Q9NYK1 27-1049): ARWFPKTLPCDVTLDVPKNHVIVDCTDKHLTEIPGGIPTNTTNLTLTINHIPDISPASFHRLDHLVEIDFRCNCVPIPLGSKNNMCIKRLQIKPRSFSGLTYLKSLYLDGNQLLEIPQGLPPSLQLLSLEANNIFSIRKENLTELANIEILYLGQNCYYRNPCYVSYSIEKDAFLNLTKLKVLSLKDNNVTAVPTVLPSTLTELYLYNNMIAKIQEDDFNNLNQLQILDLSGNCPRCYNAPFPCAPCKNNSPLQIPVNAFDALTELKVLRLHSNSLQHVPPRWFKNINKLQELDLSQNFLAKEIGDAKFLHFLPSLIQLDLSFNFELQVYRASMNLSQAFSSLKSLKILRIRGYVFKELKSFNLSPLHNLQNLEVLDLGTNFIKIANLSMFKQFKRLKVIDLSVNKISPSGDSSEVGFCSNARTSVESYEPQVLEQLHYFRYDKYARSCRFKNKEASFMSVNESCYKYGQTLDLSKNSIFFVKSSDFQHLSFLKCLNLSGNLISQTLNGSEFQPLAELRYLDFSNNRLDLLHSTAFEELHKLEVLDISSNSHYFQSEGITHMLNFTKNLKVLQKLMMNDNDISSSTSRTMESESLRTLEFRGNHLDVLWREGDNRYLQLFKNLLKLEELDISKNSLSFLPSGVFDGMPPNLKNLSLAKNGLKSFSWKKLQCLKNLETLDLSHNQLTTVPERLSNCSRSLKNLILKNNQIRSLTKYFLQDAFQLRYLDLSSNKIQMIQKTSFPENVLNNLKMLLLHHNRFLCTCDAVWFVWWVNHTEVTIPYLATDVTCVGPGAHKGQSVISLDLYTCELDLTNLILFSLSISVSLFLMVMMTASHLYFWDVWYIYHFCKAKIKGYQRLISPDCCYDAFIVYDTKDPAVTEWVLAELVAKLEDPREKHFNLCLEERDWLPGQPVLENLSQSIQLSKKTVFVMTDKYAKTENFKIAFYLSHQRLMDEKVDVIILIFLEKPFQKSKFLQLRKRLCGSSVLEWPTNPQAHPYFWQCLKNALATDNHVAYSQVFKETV
Method in brief: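 HEK293 cells expressing hTLR7 with NF-κB/AP-1-driven SEAP reporter, seeded 3.10E4 cells/well, pre-incubated 18–24 h, then exposed to 3-fold compound dilutions (0.01–20 μM) for 24 h at 37 °C. Supernatant SEAP read with QUANTI-Blue; EC50 as concentration giving 50% activation.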

IL-6 = IL-6 cytokine activation in human PBMC (MSD assay); conditions: read-out: IL6 EC50
Method: as §1, §2, §3, §4

TNF-α = TNF-α cytokine activation in human PBMC (MSD assay)
Method: as §1, §2, §3, §4

IL29 = IL29 cytokine activation in human PBMC (MSD assay)
Method: as §1, §2, §3, §4

| SMILES | EC50 (IFN-α2a; Homo sapiens, PBMC, 24 h) [nM] | EC50 (human TLR7) [nM] | EC50 (IL-6; Homo sapiens, PBMC, 24 h) [nM] | EC50 (TNF-α; Homo sapiens, PBMC, 24 h) [nM] | EC50 (IL29; Homo sapiens, PBMC, 24 h) [nM] | EC50 (IFN-α2a; 24 h) [nM] | EC50 (IL-6; 24 h) [nM] | EC50 (TNF-α; 24 h) [nM] | EC50 (IL29; 24 h) [nM] | EC50 (IFN-α2a; 24 h, 2,2,2-trifluoroacetate) [nM] | EC50 (IL-6; 24 h, 2,2,2-trifluoroacetate) [nM] | EC50 (TNF-α; 24 h, 2,2,2-trifluoroacetate) [nM] | EC50 (IL29; 24 h, 2,2,2-trifluoroacetate) [nM] |
| --- | --- | --- | --- | --- | --- | --- | --- | --- | --- | --- | --- | --- | --- |
| CCCCc1nc2c(N)nnc(OCCOC)c2n1Cc1ccc(OC)cc1 [Compound 4, 2-butyl-1-(4-methoxybenzyl)-7-(2-methoxyethoxy)-1H-imidazo[4,5-d]pyridazin-4-amine] | 81 | 1260 | 1940 | > 20000 | 795 | – | – | – | – | – | – | – | – |
| CCCCc1nc2c(N)nnc(OC(C)C)c2n1C[C@H]1CCC[C@@H](N)C1 (racemic) [Compound 23, 1-(((1S,3R)-3-aminocyclohexyl)methyl)-2-butyl-7-isopropoxy-1H-imidazo[4,5-d]pyridazin-4-amine (and enantiomer)] | 3 | 172 | 204 | 5480 | 3 | – | – | – | – | – | – | – | – |
| CCCCc1nc2c(N)nnc(C(C)C)c2n1Cc1ccc(OC)cc1 [Compound 18, 2-butyl-7-isopropyl-1-(4-methoxybenzyl)-1H-imidazo[4,5-d]pyridazin-4-amine] | 71 | 355 | 548 | 2810 | 109 | – | – | – | – | – | – | – | – |
| CCCCc1nc2c(N)nnc(OC(C)C)c2n1Cc1ccccn1 [Compound 75, 2-butyl-7-isopropoxy-1-(pyridin-2-ylmethyl)-1H-imidazo[4,5-d]pyridazin-4-amine] | 17 | 179 | 181 | 5120 | 34 | – | – | – | – | – | – | – | – |
| CCCCc1nc2c(N)nnc(SC(C)C)c2n1Cc1ccc(OC)cc1 [Compound 3, 2-butyl-7-(isopropylthio)-1-(4-methoxybenzyl)-1H-imidazo[4,5-d]pyridazin-4-amine] | 62 | 566 | 1410 | 2820 | 83 | – | – | – | – | – | – | – | – |
| CCCCc1nc2c(N)nnc(NCCOC)c2n1Cc1ccc(OC)cc1 [Compound 49, 2-butyl-1-(4-methoxybenzyl)-N7-(2-methoxyethyl)-1H-imidazo[4,5-d]pyridazine-4,7-diamine] | 75 | 353 | 1730 | 5490 | 388 | – | – | – | – | – | – | – | – |
| CCCCc1nc2c(N)nnc(N(C)C)c2n1C [Compound 41, 2-butyl-N7,N7,1-trimethyl-1H-imidazo[4,5-d]pyridazine-4,7-diamine] | 1220 | 3070 | 1280 | 5200 | 3040 | – | – | – | – | – | – | – | – |
| CCCCc1nc2c(N)nnc(N3CCC(c4ccccc4)C3)c2n1C (stereo not shown) [Compound 89, 2-butyl-1-methyl-7-(3-phenylpyrrolidin-1-yl)-1H-imidazo[4,5-d]pyridazin-4-amine] | 213 | 1200 | 466 | 2350 | 214 | – | – | – | – | – | – | – | – |
| CCCCc1nc2c(N)nnc(N(C)C)c2n1Cc1ccc(OC)cc1 [Compound 71, 2-butyl-1-(4-methoxybenzyl)-N7,N7-dimethyl-1H-imidazo[4,5-d]pyridazine-4,7-diamine] | 63 | 291 | 571 | 1740 | 57 | – | – | – | – | – | – | – | – |
| C=CCOc1nnc(N)c2nc(CCCC)n(Cc3ccc(OC)cc3)c12 [Compound 6, 7-(allyloxy)-2-butyl-1-(4-methoxybenzyl)-1H-imidazo[4,5-d]pyridazin-4-amine] | 112 | 295 | 331 | 641 | 62 | – | – | – | – | – | – | – | – |
| CCCCc1nc2c(N)nnc(OC(C)C)c2n1Cc1cccc(CN)c1 [Compound 33, 1-(3-(aminomethyl)benzyl)-2-butyl-7-isopropoxy-1H-imidazo[4,5-d]pyridazin-4-amine 2,2,2-trifluoroacetate] | 3 | 392 | 52 | 1280 | 2 | – | – | – | – | – | – | – | – |

Stronger by EC50 (human TLR7), values ahead:

| EC50 (IFN-α2a; Homo sapiens, PBMC, 24 h) [nM] | EC50 (human TLR7) [nM] | EC50 (IL-6; Homo sapiens, PBMC, 24 h) [nM] | EC50 (TNF-α; Homo sapiens, PBMC, 24 h) [nM] | EC50 (IL29; Homo sapiens, PBMC, 24 h) [nM] | EC50 (IFN-α2a; 24 h) [nM] | EC50 (IL-6; 24 h) [nM] | EC50 (TNF-α; 24 h) [nM] | EC50 (IL29; 24 h) [nM] | EC50 (IFN-α2a; 24 h, 2,2,2-trifluoroacetate) [nM] | EC50 (IL-6; 24 h, 2,2,2-trifluoroacetate) [nM] | EC50 (TNF-α; 24 h, 2,2,2-trifluoroacetate) [nM] | EC50 (IL29; 24 h, 2,2,2-trifluoroacetate) [nM] | SMILES |
| --- | --- | --- | --- | --- | --- | --- | --- | --- | --- | --- | --- | --- | --- |
| 89 | 160 | 368 | 903 | 99 | – | – | – | – | – | – | – | – | CCCCc1nc2c(N)nnc(OCC)c2n1Cc1ccc(OC)cc1 [Compound 48, 2-butyl-7-ethoxy-1-(4-methoxybenzyl)-1H-imidazo[4,5-d]pyridazin-4-amine] |
| 17 | 155 | 186 | > 20000 | 29 | – | – | – | – | – | – | – | – | C=C(C)c1nnc(N)c2nc(CCCC)n(Cc3ccc(OC)cc3)c12 [Compound 17, 2-butyl-1-(4-methoxybenzyl)-7-(prop-1-en-2-yl)-1H-imidazo[4,5-d]pyridazin-4-amine] |
| 16 | 135 | 149 | 380 | 15 | – | – | – | – | – | – | – | – | CCCCc1nc2c(N)nnc(OC3CCCC3)c2n1Cc1ccc(OC)cc1 [Compound 9, 2-butyl-7-(cyclopentyloxy)-1-(4-methoxybenzyl)-1H-imidazo[4,5-d]pyridazin-4-amine] |
| 14 | 120 | 177 | 453 | 16 | – | – | – | – | – | – | – | – | CCCCc1nc2c(N)nnc(N3CCCC3)c2n1Cc1ccc(OC)cc1 [Compound 10, 2-butyl-1-(4-methoxybenzyl)-7-(pyrrolidin-1-yl)-1H-imidazo[4,5-d]pyridazin-4-amine] |
| 21 | 106 | 40 | 343 | 15 | – | – | – | – | – | – | – | – | CCCCc1nc2c(N)nnc(OC(C)C)c2n1Cc1ccc(CO)cc1 [Compound 35, (4-((4-amino-2-butyl-7-isopropoxy-1H-imidazo[4,5-d]pyridazin-1-yl)methyl)phenyl)methanol] |
| 103 | 103 | 457 | 712 | 173 | – | – | – | – | – | – | – | – | CCCCc1nc2c(N)nnc(OC(C)C)c2n1Cc1ccc(OC)cc1 [Compound 1, 2-butyl-7-isopropoxy-1-(4-methoxybenzyl)-1H-imidazo[4,5-d]pyridazin-4-amine] |
| 3 | 53 | 99 | 573 | 6 | – | – | – | – | – | – | – | – | CCCCc1nc2c(N)nnc(NC(C)C)c2n1Cc1ccc(OC)cc1 [Compound 2, 2-butyl-N7-isopropyl-1-(4-methoxybenzyl)-1H-imidazo[4,5-d]pyridazin-4,7-diamine] |
| – | 33 | – | – | – | 0.4 | 8 | 284 | 0.3 | – | – | – | – | CCCCc1nc2c(N)nnc(OC(C)C)c2n1Cc1ccc(CN)cc1 [Compound 21, 1-(4-(aminomethyl)benzyl)-2-butyl-7-isopropoxy-1H-imidazo[4,5-d]pyridazin-4-amine] |
| – | 30 | – | – | – | – | – | – | – | 0.1 | 165 | 2790 | 0.1 | CCCCc1nc2c(N)nnc(OC(C)C)c2n1Cc1ccc(CN)cc1 [Compound 22, 1-(4-(aminomethyl)benzyl)-2-butyl-7-isopropoxy-1H-imidazo[4,5-d]pyridazin-4-amine 2,2,2-trifluoroacetate] |
